Columns and labels:
[1] = target: T1, CFTR in F508del/F508del primary CF hBE cells (Homo sapiens, UniProt P13569, DEL508-508); experiment: Ussing chamber electrophysiology assay of CFTR potentiation in F508del/F508del CF bronchial epithelial cells (27° C.); format: cell-based
T1 construct: Primary cystic fibrosis human bronchial epithelial (CF hBE) cells were expanded and cultured; endogenous in cells; host or cells: primary CF human bronchial epithelial cells, genotype F508del/F508del
Description: • SHELXTL, Version 5.1, Bruker AXS, 1997. • PLATON, A. L. Spek, J. Appl. Cryst. 2003, 36, 7-13. • MERCURY, C. F. Macrae, P. R. Edington, P. McCabe, E. Pidcock, G. P. Shields, R. Taylor, M. Towler and J. van de Streek, J. Appl. Cryst. 39, 453-457, 2006. • OLEX2, Dolomanov, O. V.; Bourhis, L. J.; Gildea, R. J.; Howard, J. A. K.; Puschmann, H., (2009). J. Appl. Cryst., 42, 339-341. • R. W. W. Hooft et al. J. Appl. Cryst. (2008). 41. 96-103. • H. D. Flack, Acta Cryst. 1983, A39, 867-881. Using Chamber Electrophysiology Assay of CFTR Potentiation in CF Bronchial Epithelial Cells
Primary cystic fibrosis human bronchial epithelial (CF hBE) cells were expanded and cultured according to published methods (Neuberger et al., Ch. 4 of Cystic Fibrosis, Methods in Molecular Biology vol. 741, pp. 39-54 (2011)). Well-differentiated cells (>30 days at air/liquid interface) on Snapwell filters (Corning Costar, cat. no. 3801) were mounted in Ussing chambers (Physiologic Instruments, Inc., San Diego, CA). […] HEPES buffered physiological saline (composition (in mM): 137 NaCl, 4 KCl, 1 MgCl2, 1.8 CaCl2), 10 HEPES Na) was used in both apical and basolateral chambers. Chambers were bubbled with air to promote mixing and the voltage was clamped to zero. Amiloride (30 uM), forskolin (10 uM), test compound (4 increasing concentrations), and CFTRinh-172 (20 uM) were added sequentially with 20-25 minutes between additions. Short-circuit currents were acquired and analyzed using LabScribe2. Test compound responses were scaled relative to responses for DMSO (0%) and the maximal response of a positive control potentiator (100%).

[2] = target: T2, recombinant F508del V470 CFTR in Fischer rat thyroid (FRT) cells (Homo sapiens, UniProt P13569, DEL508-508); experiment: FRT ion flux assay of F508del CFTR potentiation; format: cell-based; details: FRT cells expressing F508del V470 CFTR, forskolin 20 uM, 27° C. pre-incubation
T2 construct: expressed in transfected cells
Method: FRT Ion Flux Assay of F508del CFTR Potentiation
Fischer rat thyroid (FRT) cell lines stably expressing recombinant F508del V470 CFTR and halide-sensitive yellow fluorescent protein (Pedemonte et al., J. Clin. Invest. 115(9) 2564-71 (2005)) were seeded at 25,000 cells/well in 50 uL/well of culture medium into black-walled, clear bottom tissue-culture-treated 384-well plates (Corning, cat. no. 3712). After one day, the cells were pre-incubated at 27° C./5% CO2 for 16-24 hours. The cells were then washed with dPBS and treated with forskolin (20 uM) and test compound for 30 mi by addition of 20 uL of compound dilution buffer (dPBS containing forskolin and test compound). Plates were loaded into FLIPR384 fluorescence imaging plate reader (Molecular Devices). After an initial fluorescence reading, iodide buffer (25 uL) (composition (in mM): 137 NaI, 1.5 K2PO4, 8.1 NaH2PO4, 2.7 KCl, 0.5 MgCl2, 1 CaCl2) was added and a second fluorescence reading was made after approximately 21 seconds. Data treatment involved division of the second fluorescence reading by the initial fluorescence reading, then scaling of the resulting normalized endpoint fluorescence with respect to the responses for DMSO (0%) and a positive control potentiator (100%).

T1 sequence (P13569 with tags, fused parts or gaps DEL508-508): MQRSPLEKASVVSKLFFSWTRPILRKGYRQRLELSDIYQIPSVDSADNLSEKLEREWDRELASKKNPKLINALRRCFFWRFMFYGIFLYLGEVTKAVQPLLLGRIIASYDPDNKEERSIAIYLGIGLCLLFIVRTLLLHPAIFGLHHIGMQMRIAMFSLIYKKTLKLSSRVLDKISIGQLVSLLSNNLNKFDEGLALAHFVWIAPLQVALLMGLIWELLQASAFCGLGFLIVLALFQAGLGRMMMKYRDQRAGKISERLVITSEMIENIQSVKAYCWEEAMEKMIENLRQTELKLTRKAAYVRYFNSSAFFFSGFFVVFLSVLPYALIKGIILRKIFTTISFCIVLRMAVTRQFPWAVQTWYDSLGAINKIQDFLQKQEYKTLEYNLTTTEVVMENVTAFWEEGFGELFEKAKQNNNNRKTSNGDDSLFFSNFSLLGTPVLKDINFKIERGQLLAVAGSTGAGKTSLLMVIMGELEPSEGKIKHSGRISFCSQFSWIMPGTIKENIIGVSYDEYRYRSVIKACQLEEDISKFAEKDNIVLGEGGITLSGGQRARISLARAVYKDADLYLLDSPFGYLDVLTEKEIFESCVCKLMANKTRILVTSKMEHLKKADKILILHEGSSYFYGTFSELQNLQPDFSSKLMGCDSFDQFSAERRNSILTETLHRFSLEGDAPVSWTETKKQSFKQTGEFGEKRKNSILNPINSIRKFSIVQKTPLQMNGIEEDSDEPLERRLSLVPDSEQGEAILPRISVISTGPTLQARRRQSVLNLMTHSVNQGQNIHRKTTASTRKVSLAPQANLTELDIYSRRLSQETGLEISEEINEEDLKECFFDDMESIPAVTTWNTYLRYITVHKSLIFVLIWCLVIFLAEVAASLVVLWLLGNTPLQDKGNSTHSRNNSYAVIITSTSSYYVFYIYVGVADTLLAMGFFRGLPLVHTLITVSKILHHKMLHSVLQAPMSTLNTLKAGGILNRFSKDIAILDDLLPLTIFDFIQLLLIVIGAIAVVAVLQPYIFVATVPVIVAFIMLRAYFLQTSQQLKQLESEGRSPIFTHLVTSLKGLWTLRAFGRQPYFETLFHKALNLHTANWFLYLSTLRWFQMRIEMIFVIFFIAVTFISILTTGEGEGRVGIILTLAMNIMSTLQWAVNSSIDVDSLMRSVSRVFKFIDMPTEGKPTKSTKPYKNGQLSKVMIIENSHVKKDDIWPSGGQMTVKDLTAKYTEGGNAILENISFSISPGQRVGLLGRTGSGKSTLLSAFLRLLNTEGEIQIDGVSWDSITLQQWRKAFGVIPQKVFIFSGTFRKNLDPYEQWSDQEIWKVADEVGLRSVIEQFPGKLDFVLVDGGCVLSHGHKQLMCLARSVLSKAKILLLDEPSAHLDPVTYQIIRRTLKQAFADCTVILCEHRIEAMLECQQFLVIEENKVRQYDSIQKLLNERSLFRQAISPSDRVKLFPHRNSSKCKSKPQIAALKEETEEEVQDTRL
T2 sequence (P13569 with tags, fused parts or gaps DEL508-508): as above

Row | EC50 [1] [nM] | EC50 [2] [nM] | Structure (SMILES)
1 | 38.2 | 41.3 | CSc1ccc(-c2cn(C(C)c3cn(-c4ccccc4F)nn3)c3ncnc(N)c23)cc1 (stereo not drawn) [Example 88, 7-{1-[1-(2-Fluorophenyl)-1H-1,2,3-triazol-4-yl]ethyl}-5-[4-(methylsulfanyl)phenyl]-7H-pyrrolo[2,3-d]pyrimidin-4-amine]
2 | 12.2 | 28.6 | COc1nc(C)ccc1-c1cn(Cc2cn(-c3ccccc3F)nn2)c2ncnc(N)c12 [Example 194, 7-{[1-(2-Fluorophenyl)-1H-1,2,3-triazol-4-yl]methyl}-5-(2-methoxy-6-methylpyridin-3-yl)-7H-pyrrolo[2,3-d]pyrimidin-4-amine]
3 | 29.7 | 26 | CCC(c1cn(-c2ccccc2F)nn1)n1cc(-c2cnc(N(C)C)nc2)c2c(N)ncnc21 (single isomer, unassigned; enantiomer 1) [Example 145, 5-[2-(Dimethylamino)pyrimidin-5-yl]-7-{1-[1-(2-fluorophenyl)-1H-1,2,3-triazol-4-yl]propyl}-7H-pyrrolo[2,3-d]pyrimidin-4-amine, enantiomer 1]
4 | 60.2 | 313 | Nc1ncnc2c1c(-c1ccc(Cl)cc1)cn2Cc1cnn(-c2ccccc2F)c1 [Example 262, 5-(4-Chlorophenyl)-7-{[1-(2-fluorophenyl)-1H-pyrazol-4-yl]methyl}-7H-pyrrolo[2,3-d]pyrimidin-4-amine]
5 | 65.9 | 28.8 | Nc1ncnc2c1c(-c1cnc(C(F)(F)F)nc1)cn2Cc1cnn(-c2ccccc2F)c1 [Example 57, 7-((1-(2-fluorophenyl)-1H-pyrazol-4-yl)methyl)-5-(2-(trifluoromethyl)pyrimidin-5-yl)-7H-pyrrolo[2,3-d]pyrimidin-4-amine]
6 | – | 2220 | CC(c1cnc(-c2ccccc2F)[nH]1)n1cc(-c2cnc3[nH]ccc3c2)c2c(N)ncnc21 (stereo not drawn) [Example 62, 7-{1-[2-(2-Fluorophenyl)-1H-imidazol-5-yl]ethyl}-5-(7H-pyrrolo[2,3-b]pyridin-5-yl)-7H-pyrrolo[2,3-d]pyrimidin-4-amine]
7 | – | 1300 | CCC(c1cn(-c2ccc(OC)nc2)nn1)n1cc(-c2cnc(C(F)(F)F)nc2)c2c(N)ncnc21 (single isomer, unassigned; enantiomer 2) [Example 310, 7-{1-[1-(6-Methoxypyridin-3-yl)-1H-1,2,3-triazol-4-yl]propyl}-5-[2-(trifluoromethyl)pyrimidin-5-yl]-7H-pyrrolo[2,3-d]pyrimidin-4-amine, enantiomer 2]
8 | – | 2380 | Cn1cc2cc(-c3cn(Cc4cn(-c5ccccc5F)nn4)c4ncnc(N)c34)ccc2n1 [Example 76, 7-{[1-(2-Fluorophenyl)-1H-1,2,3-triazol-4-yl]methyl}-5-(2-methyl-2H-indazol-5-yl)-7H-pyrrolo[2,3-d]pyrimidin-4-amine]
9 | – | 1420 | CC(c1cnc(-c2ccccc2F)[nH]1)n1cc(-c2ccc3c(c2)OCC(=O)N3)c2c(N)ncnc21 (stereo not drawn) [Example 65, 7-(4-Amino-7-{1-[2-(2-fluorophenyl)-1H-imidazol-5-yl]ethyl}-7H-pyrrolo[2,3-d]pyrimidin-5-yl)-2H-1,4-benzoxazin-3(4H)-one]
10 | – | 1480 | CC(c1cnc(-c2ccccc2F)[nH]1)n1cc(-c2cccc3ccncc23)c2c(N)ncnc21 (stereo not drawn) [Example 61, 7-{1-[2-(2-Fluorophenyl)-1H-imidazol-5-yl]ethyl}-5-(isoquinolin-8-yl)-7H-pyrrolo[2,3-d]pyrimidin-4-amine]
11 | – | 42.4 | CCC(c1cn(-c2ccc(F)c(F)c2)nn1)n1cc(-c2cncnc2OC)c2c(N)ncnc21 (stereo not drawn) [Example 245, 7-{1-[1-(3,4-Difluorophenyl)-1H-1,2,3-triazol-4-yl]propyl}-5-[4-methoxypyrimidin-5-yl]-7H-pyrrolo[2,3-d] pyrimidin-4-amine]
12 | – | 2420 | CC(c1cn(-c2ccccc2F)nn1)n1cc(-c2cccc3c2cnn3C)c2c(N)ncnc21 (stereo not drawn) [Example 92, 7-{1-[1-(2-Fluorophenyl)-1H-1,2,3-triazol-4-yl]ethyl}-5-(1-methyl-1H-indazol-4-yl)-7H-pyrrolo[2,3-d]pyrimidin-4-amine]
13 | – | 17.2 | CCC(c1cn(-c2ccc(F)cc2F)nn1)n1cc(-c2cncnc2OC)c2c(N)ncnc21 (stereo not drawn) [Example 246, 7-{1-[1-(2,4-Difluorophenyl)-1H-1,2,3-triazol-4-yl]propyl}-5-[4-methoxypyrimidin-5-yl]-7H-pyrrolo[2,3-d] pyrimidin-4-amine]
14 | – | 5.41 | CCC(c1cn(-c2ccccc2F)nn1)n1cc(-c2nccnc2OC)c2c(N)ncnc21 (stereo not drawn) [Example 251, 7-{1-[1-(2-Fluorophenyl)-1H-1,2,3-triazol-4-yl]propyl}-5-(3-methoxypyrazin-2-yl)-7H-pyrrolo [2,3-d]pyrimidin-4-amine]
15 | – | 850 | CCC(c1c[nH]c(-c2ccc(F)cc2F)n1)n1cc(-c2cnc(C(F)(F)F)nc2)c2c(N)ncnc21 (single isomer, unassigned; enantiomer 2) [Example 178, 7-{1-[2-(2,4-Difluorophenyl)-2H-imidazol-4-yl]propyl}-5-[2-(trifluoromethyl)pyrimidin-5-yl]-7H-pyrrolo[2,3-d]pyrimidin-4-amine, enantiomer 2]
16 | – | 1890 | Nc1ncnc2c1c(C1CN(S(=O)(=O)CC3CC3)C1)cn2Cc1cn(-c2ccccc2F)nn1 [Example 293, 5-{1-[(Cyclopropylmethyl)sulfonyl]azetidin-3-yl}-7-{[1-(2-fluorophenyl)-1H-1,2,3-triazol-4-yl]methyl}-7H-pyrrolo[2,3-d]pyrimidin-4-amine]
17 | – | 3780 | Nc1ncnc2c1c(-c1cnc3[nH]ccc3c1)cn2Cc1cn(-c2ccccc2F)nn1 [Example 80, 7-{[1-(2-Fluorophenyl)-1H-1,2,3-triazol-4-yl]methyl}-5-(7H-pyrrolo[2,3-b]pyridin-5-yl)-7H-pyrrolo[2,3-d]pyrimidin-4-amine]
18 | – | 915 | COc1cc2c(cc1-c1cn(C(C)c3cnc(-c4ccccc4F)[nH]3)c3ncnc(N)c13)CCC2 (stereo not drawn) [Example 69, 7-{1-[2-(2-Fluorophenyl)-1H-imidazol-5-yl]ethyl}-5-(6-methoxy-2,3-dihydro-1H-inden-5-yl)-7H-pyrrolo[2,3-d]pyrimidin-4-amine]
19 | – | 479 | CCC(c1cn(-c2ccccc2F)nn1)n1cc(-c2cc[nH]n2)c2c(N)ncnc21 (single isomer, unassigned; enantiomer 1) [Example 147, 7-{1-[1-(2-Fluorophenyl)-1H-1,2,3-triazol-4-yl]propyl}-5-(1H-pyrazol-3-yl)-7H-pyrrolo[2,3-d]pyrimidin-4-amine, enantiomer 1]
20 | – | 488 | CC(c1cn(-c2ccccc2F)nn1)n1cc(-c2ccc3c(cnn3C)c2)c2c(N)ncnc21 (stereo not drawn) [Example 95, 7-{1-[1-(2-Fluorophenyl)-1H-1,2,3-triazol-4-yl]ethyl}-5-(1-methyl-1H-indazol-5-yl)-7H-pyrrolo[2,3-d]pyrimidin-4-amine]
21 | – | 3210 | Nc1ncnc2c1c(C1CN(C(=O)C3CC3)C1)cn2Cc1cn(-c2ccccc2F)nn1 [Example 292, [3-(4-Amino-7-{[1-(2-fluorophenyl)-1H-1,2,3-triazol-4-yl]methyl}-7H-pyrrolo[2,3-d]pyrimidin-5-yl)azetidin-1-yl](cyclopropyl) methanone]
22 | 551 | – | Nc1ncnc2c1c(-c1ccc(Cl)cc1)cn2Cc1nnc(-c2ccccc2)[nH]1 [Example 284, 5-(4-Chlorophenyl)-7-[(5-phenyl-4H-1,2,4-triazol-3-yl)methyl]-7H-pyrrolo[2,3-d]pyrimidin-4-amine]

— US12612409B2, “Pyrrolopyrimidines as CFTR potentiators” (Cystic Fibrosis Foundation, priority 2016, dated 2026)
